# Experimental data taken from ChEMBL document CHEMBL4732099, “ROS-responsive and multifunctional anti-Alzheimer prodrugs: Tacrine-ibuprofen hybrids via a phenyl boronate linker” (Eur J Med Chem, 2021).
# Calls of active or inactive are those of the source. No cut-off for these calls is given here.
# Experiments:
# [1] = Drug uptake in mouse BV-2 cells at 10 uM measured after 12 hrs by laser scanning confocal microscopic analysis; type: ADME, cell-based; details: bv-2, 12 h
# [2] = Drug uptake in human SH-SY5Y cells at 10 uM measured after 12 hrs by laser scanning confocal microscopic analysis; type: ADME, cell-based
# SH-SY5Y [3] = assay: Neuroprotective activity against H2O2-induced apoptosis in human SH-SY5Y cells assessed as late apoptotic cells at 5 uM preincubated for 6 hrs followed by H2O2 addition and measured after 24 hrs by annexin V FITC/propidium iodide staining based flow cytometry (reference value: 13.1%); type: functional; details: time 30 hrs
# [4] = target: Acetylcholinesterase (Electrophorus electricus) (UniProt O42275); assay: Inhibition of electric eel AChE at 10 uM using acetylthiocholine iodide as substrate preincubated for 5 mins followed by substrate addition and measured after 1 min by Ellman's method relative to control; details: time 6.0 min
# SH-SY5Y [5] = assay: Induction of apoptosis in human SH-SY5Y cells assessed as late apoptotic cells at 10 uM incubated for 24 hrs by annexin V FITC/propidium iodide staining based flow cytometry (reference value: […]); type: cell-based
# SH-SY5Y [6] = assay: Cytotoxicity against human SH-SY5Y cells assessed as reduction in cell viability at 31.25 uM measured after 72 hrs by MTT assay; type: cell-based
# SH-SY5Y [7] = assay: Neuroprotective activity against H2O2-induced cytotoxicity in human SH-SY5Y cells assessed as cell viability at 20 uM preincubated for 6 hrs followed by H2O2 addition and measured after 24 hrs by MTT assay (reference value: 20%); type: functional; details: time 30 hrs, read-out: Activity
# BV-2 [8] = assay: Antiinflammatory activity in mouse BV-2 cells assessed as fold change in LPS-induced IL1beta mRNA expression at 5 uM preincubated for 6 hrs followed by LPS stimulation and measured after 24 hrs RT-qPCR analysis (reference value: 3.68 +/- 0.02); type: functional; details: time 30 hrs
# SH-SY5Y [9] = assay: Neuroprotective activity against H2O2-induced apoptosis in human SH-SY5Y cells assessed as necrotic cells at 5 uM preincubated for 6 hrs followed by H2O2 addition and measured after 24 hrs by annexin V FITC/propidium iodide staining based flow cytometry (reference value: 44.3%); type: functional; details: time 30 hrs
# SH-SY5Y [10] = assay: Neuroprotective activity against H2O2-induced apoptosis in human SH-SY5Y cells assessed as late apoptotic cells at 10 uM preincubated for 6 hrs followed by H2O2 addition and measured after 24 hrs by annexin V FITC/propidium iodide staining based flow cytometry (reference value: 13.1%); type: functional; details: time 30 hrs
# SH-SY5Y [11] = assay: Induction of apoptosis in human SH-SY5Y cells assessed as necrotic cells at 10 uM incubated for 24 hrs by annexin V FITC/propidium iodide staining based flow cytometry (reference value: 0.8 %); type: cell-based
# in vitro = details: human, SH-SY5Y cells
# BV-2 [12] = assay: Antiinflammatory activity in mouse BV-2 cells assessed as reduction in LPS-induced IL1beta mRNA expression preincubated for 6 hrs followed by LPS stimulation and measured after 24 hrs RT-qPCR analysis; type: functional, cell-based; details: dose 5-10 µM, time 30.0 hrs
# SH-SY5Y [13] = assay: Neuroprotective activity against H2O2-induced apoptosis in human SH-SY5Y cells assessed as early apoptotic cells at 5 uM preincubated for 6 hrs followed by H2O2 addition and measured after 24 hrs by annexin V FITC/propidium iodide staining based flow cytometry (reference value: 0.9%); type: functional; details: time 30 hrs
# HepG2 = assay: Hepatotoxicity in human HepG2 cells assessed as increase in ROS accumulation by measuring increase in green fluorescence at 25 to 50 uM measured after 24 hrs by ROS tracker based laser confocal microscopic analysis; type: toxicity, cell-based; details: hepg2, 24 h, dose 25-50 µM
# SH-SY5Y [14] = assay: Neuroprotective activity against H2O2-induced apoptosis in human SH-SY5Y cells assessed as reduction in cells with red fluorescence at 10 uM preincubated for 6 hrs followed by H2O2 addition and measured after 24 hrs by calcein AM/propidium iodide staining based laser confocal microscope; type: functional, cell-based; details: time 30.0 hrs
# SH-SY5Y [15] = assay: Neuroprotective activity against H2O2-induced apoptosis in human SH-SY5Y cells assessed as early apoptotic cells at 10 uM preincubated for 6 hrs followed by H2O2 addition and measured after 24 hrs by annexin V FITC/propidium iodide staining based flow cytometry (reference value: 0.9%); type: functional; details: time 30 hrs
# Acetylcholinesterase = Acetylcholinesterase (Electrophorus electricus, UniProt O42275); assay: Inhibition of electric eel AChE using acetylthiocholine iodide as substrate preincubated for 5 mins followed by substrate addition and measured after 1 min in presence of H2O2 by Ellman's method
# SH-SY5Y [16] = assay: Neuroprotective activity against H2O2-induced apoptosis in human SH-SY5Y cells assessed as increase in Bcl-2 expression preincubated for 6 hrs followed by H2O2 addition and measured after 24 hrs by Western blot analysis; type: functional, cell-based; details: dose 5-10 µM, time 30.0 hrs
# BV-2 [17] = assay: Antiinflammatory activity in mouse BV-2 cells assessed as fold change in LPS-induced IL1beta mRNA expression at 10 uM preincubated for 6 hrs followed by LPS stimulation and measured after 24 hrs RT-qPCR analysis (reference value: 3.68 +/- 0.02); type: functional; details: time 30 hrs
# BV-2 [18] = assay: Antiinflammatory activity in mouse BV-2 cells assessed as reduction in LPS-induced ROS level at 10 uM preincubated for 6 hrs followed by LPS stimulation and measured after 18 hrs by DCFH-DA staining based laser confocal microscopic analysis; type: functional, cell-based
# [19] = Prodrug activation assessed as hydrolysis of benzyl ester bonds in presence of H2O2 by 1H-NMR analysis
# BV-2 [20] = assay: Antiinflammatory activity in mouse BV-2 cells assessed as reduction in LPS-induced TNFalpha mRNA expression preincubated for 6 hrs followed by LPS stimulation and measured after 24 hrs RT-qPCR analysis; type: functional, cell-based; details: dose 5-10 µM, time 30.0 hrs
# BV-2 [21] = assay: Antiinflammatory activity in mouse BV-2 cells assessed as fold change in LPS-induced TNFalpha mRNA expression at 5 uM preincubated for 6 hrs followed by LPS stimulation and measured after 24 hrs RT-qPCR analysis (reference value: 3.86 +/- 0.25); type: functional; details: time 30 hrs
# SH-SY5Y [22] = assay: Neuroprotective activity against H2O2-induced apoptosis in human SH-SY5Y cells assessed as necrotic cells at 10 uM preincubated for 6 hrs followed by H2O2 addition and measured after 24 hrs by annexin V FITC/propidium iodide staining based flow cytometry (reference value: 44.3%); type: functional; details: time 30 hrs
# SH-SY5Y [23] = assay: Neuroprotective activity against H2O2-induced apoptosis in human SH-SY5Y cells assessed as increase in viable cells preincubated for 6 hrs followed by H2O2 addition and measured after 24 hrs by annexin V FITC/propidium iodide staining based flow cytometry; type: functional, cell-based; details: dose 5-10 µM, time 30.0 hrs
# SH-SY5Y [24] = assay: Induction of apoptosis in human SH-SY5Y cells assessed as early apoptotic cells at 10 uM incubated for 24 hrs by annexin V FITC/propidium iodide staining based flow cytometry (reference value: […]); type: cell-based
# Rattus norvegicus [25] = assay: Cognitive enhancing effect in Sprague-Dawley rat model of amyloid beta (25 to 35) peptide-induced memory impairment assessed as reduction in escape latency time at 0.9 mg per 100 g, […] qd for 4 weeks administered via gavage and measured after 4 to 5 days by Morris water maze test; type: functional, organism-based; details: time 32-33 day
# Rattus norvegicus [26] = assay: Cognitive enhancing effect in Sprague-Dawley rat model of amyloid beta (25 to 35) peptide-induced memory impairment assessed as time spent in target platform at 0.9 mg per 100 g, […] qd for 4 weeks administered via gavage and measured after 5 days by Morris water maze test (reference value: 0.5 sec); type: functional; details: time 33 day
# Rattus norvegicus [27] = assay: Cognitive enhancing effect in Sprague-Dawley rat model of amyloid beta (25 to 35) peptide-induced memory impairment assessed as number of platform crossing at 0.9 mg per 100 g, […] qd for 4 weeks administered via gavage and measured after 5 days by Morris water maze test (reference value: 0.4); type: functional; details: time 33 day
# SH-SY5Y [28] = assay: Neuroprotective activity against H2O2-induced cytotoxicity in human SH-SY5Y cells assessed as cell viability at 5 uM preincubated for 6 hrs followed by H2O2 addition and measured after 24 hrs by MTT assay (reference value: 20%); type: functional; details: time 30 hrs, read-out: Activity
# SH-SY5Y [29] = assay: Neuroprotective activity against H2O2-induced apoptosis in human SH-SY5Y cells assessed as reduction in Bax expression preincubated for 6 hrs followed by H2O2 addition and measured after 24 hrs by Western blot analysis; type: functional, cell-based; details: dose 5-10 µM, time 30.0 hrs
# BV-2 [30] = assay: Antiinflammatory activity in mouse BV-2 cells assessed as fold change in LPS-induced TNFalpha mRNA expression at 10 uM preincubated for 6 hrs followed by LPS stimulation and measured after 24 hrs RT-qPCR analysis (reference value: 3.86 +/- 0.25); type: functional; details: time 30 hrs
# SH-SY5Y [31] = assay: Neuroprotective activity against H2O2-induced apoptosis in human SH-SY5Y cells assessed as viable cells at 5 uM preincubated for 6 hrs followed by H2O2 addition and measured after 24 hrs by annexin V FITC/propidium iodide staining based flow cytometry (reference value: 41.7%); type: functional; details: time 30 hrs, read-out: Activity
# SH-SY5Y [32] = assay: Neuroprotective activity against H2O2-induced apoptosis in human SH-SY5Y cells assessed as viable cells at 10 uM preincubated for 6 hrs followed by H2O2 addition and measured after 24 hrs by annexin V FITC/propidium iodide staining based flow cytometry (reference value: 41.7%); type: functional; details: time 30 hrs, read-out: Activity
# SH-SY5Y [33] = assay: Neuroprotective activity against H2O2-induced apoptosis in human SH-SY5Y cells assessed as reduction in cleaved caspase-3 expression preincubated for 6 hrs followed by H2O2 addition and measured after 24 hrs by Western blot analysis; type: functional, cell-based; details: dose 5-10 µM, time 30.0 hrs
# SH-SY5Y [34] = assay: Cytotoxicity against human SH-SY5Y cells assessed as reduction in cell viability at 7.81 to 31.25 uM measured after 72 hrs by MTT assay; type: cell-based; details: dose 7.81-31.25 µM
# SH-SY5Y [35] = assay: Cytotoxicity against human SH-SY5Y cells assessed as reduction in cell viability at 7.81 to 15.62 uM measured after 72 hrs by MTT assay; type: cell-based; details: dose 7.81-15.62 µM
# SH-SY5Y [36] = assay: Neuroprotective activity against H2O2-induced apoptosis in human SH-SY5Y cells assessed as reduction in cleaved caspase-3 expression at 10 uM preincubated for 6 hrs followed by H2O2 addition and measured after 24 hrs by Western blot analysis; type: functional, cell-based; details: time 30.0 hrs
# SH-SY5Y [37] = assay: Neuroprotective activity against H2O2-induced apoptosis in human SH-SY5Y cells assessed as increase in Bcl-2 expression at 10 uM preincubated for 6 hrs followed by H2O2 addition and measured after 24 hrs by Western blot analysis; type: functional, cell-based; details: time 30.0 hrs
# SH-SY5Y [38] = assay: Neuroprotective activity against H2O2-induced apoptosis in human SH-SY5Y cells assessed as reduction in Bax expression at 10 uM preincubated for 6 hrs followed by H2O2 addition and measured after 24 hrs by Western blot analysis; type: functional, cell-based; details: time 30.0 hrs
# Chain of Acetylcholinesterase (O42275 whole entry): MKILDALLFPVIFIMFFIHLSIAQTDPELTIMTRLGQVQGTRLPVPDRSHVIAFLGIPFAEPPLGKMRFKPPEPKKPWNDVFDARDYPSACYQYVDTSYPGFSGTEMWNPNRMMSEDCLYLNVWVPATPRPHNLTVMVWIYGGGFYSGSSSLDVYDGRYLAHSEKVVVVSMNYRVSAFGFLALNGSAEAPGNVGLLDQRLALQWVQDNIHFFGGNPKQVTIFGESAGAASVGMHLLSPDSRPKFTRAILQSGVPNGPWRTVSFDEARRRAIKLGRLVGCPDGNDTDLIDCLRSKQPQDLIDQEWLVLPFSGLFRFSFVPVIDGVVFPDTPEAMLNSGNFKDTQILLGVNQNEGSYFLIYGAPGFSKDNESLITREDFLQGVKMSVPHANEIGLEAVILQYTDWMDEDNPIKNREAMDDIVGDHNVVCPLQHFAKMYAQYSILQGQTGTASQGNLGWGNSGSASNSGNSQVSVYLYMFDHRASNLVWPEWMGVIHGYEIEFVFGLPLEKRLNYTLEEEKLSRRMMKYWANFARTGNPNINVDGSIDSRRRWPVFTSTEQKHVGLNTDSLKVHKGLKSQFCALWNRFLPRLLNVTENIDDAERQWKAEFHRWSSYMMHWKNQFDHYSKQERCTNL
# Chain of Acetylcholinesterase (Electrophorus electricus) (O42275 24-633 limits assumed): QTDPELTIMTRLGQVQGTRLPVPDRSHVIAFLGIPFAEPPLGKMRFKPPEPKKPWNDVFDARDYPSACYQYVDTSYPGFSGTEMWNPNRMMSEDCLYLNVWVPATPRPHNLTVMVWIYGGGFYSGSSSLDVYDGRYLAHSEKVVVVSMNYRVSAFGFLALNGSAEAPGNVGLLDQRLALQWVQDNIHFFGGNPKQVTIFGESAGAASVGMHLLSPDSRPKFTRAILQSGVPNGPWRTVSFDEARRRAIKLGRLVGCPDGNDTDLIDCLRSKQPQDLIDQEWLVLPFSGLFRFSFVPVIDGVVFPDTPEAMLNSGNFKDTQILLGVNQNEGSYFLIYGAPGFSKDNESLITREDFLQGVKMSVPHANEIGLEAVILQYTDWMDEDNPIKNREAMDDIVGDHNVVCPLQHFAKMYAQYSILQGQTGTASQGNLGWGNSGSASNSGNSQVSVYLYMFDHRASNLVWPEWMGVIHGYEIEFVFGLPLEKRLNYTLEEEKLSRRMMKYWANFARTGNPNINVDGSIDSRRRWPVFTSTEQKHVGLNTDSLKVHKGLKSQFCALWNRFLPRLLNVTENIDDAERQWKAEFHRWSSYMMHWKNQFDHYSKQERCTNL
smiles,measurement,setting,value
Cc1cc(COC(=O)CCCCCOc2ccc3ccc(=O)oc3c2)c(OCc2ccc(B3OC(C)(C)C(C)(C)O3)cc2)c(COC(=O)C(C)c2ccc(CC(C)C)cc2)c1 (stereo not given),Drug uptake,[1],Active
same,Drug uptake,[2],Active
Cc1cc(COC(=O)NCCCCCCNc2c3c(nc4ccccc24)CCCC3)c(OCc2ccc(B3OC(C)(C)C(C)(C)O3)cc2)c(COC(=O)C(C)c2ccc(CC(C)C)cc2)c1 (stereo not given),Activity,SH-SY5Y [3],10.5%
same,inhibition,[4],47.2%
same,Activity,SH-SY5Y [5],2.57%
same,Activity,SH-SY5Y [6],Non-Toxic
same,viability at 20 µM,SH-SY5Y [7],> 80%
same,fold change (FC),BV-2 [8],1.36
same,Activity,SH-SY5Y [9],14.1%
same,Activity,SH-SY5Y [10],4.97%
same,Activity,SH-SY5Y [11],2.48%
same,"viability at 24 h, 5 µM",in vitro,90.4%
same,Activity,BV-2 [12],Dose-dependent effect
same,Activity,SH-SY5Y [13],1.75%
same,Activity,HepG2,Toxic
same,Activity,SH-SY5Y [14],Active
same,Activity,SH-SY5Y [15],1.17%
same,IC50,Acetylcholinesterase,39.2 nM
same,Activity,SH-SY5Y [16],Dose-dependent effect
same,fold change (FC),BV-2 [17],0.86
same,Activity,BV-2 [18],Active
same,Drug metabolism,[19],Metabolite_Detected
same,Activity,BV-2 [20],Dose-dependent effect
same,fold change (FC),BV-2 [21],1.6
same,Activity,SH-SY5Y [22],7.3%
same,Activity,SH-SY5Y [23],Dose-dependent effect
same,Activity,SH-SY5Y [24],1.65%
same,Activity,Rattus norvegicus [25],Active
same,Time,Rattus norvegicus [26],2.2 s
same,Activity,Rattus norvegicus [27],4.2
same,viability at 5 µM,SH-SY5Y [28],> 50%
same,Activity,SH-SY5Y [29],Dose-dependent effect
same,fold change (FC),BV-2 [30],1.2
same,viability at 5 µM,SH-SY5Y [31],73.7%
same,viability at 10 µM,SH-SY5Y [32],86.6%
same,Activity,SH-SY5Y [33],Dose-dependent effect
Cc1cc(COC(=O)NCCCNc2c3c(nc4ccccc24)CCCC3)c(OCc2ccc(B3OC(C)(C)C(C)(C)O3)cc2)c(COC(=O)C(C)c2ccc(CC(C)C)cc2)c1 (stereo not given),inhibition,[4],32.9%
same,viability at 20 µM,SH-SY5Y [7],> 80%
same,Activity,SH-SY5Y [34],Toxic
same,IC50,Acetylcholinesterase,302 nM
same,viability at 5 µM,SH-SY5Y [28],> 50%
Cc1cc(COC(=O)NCCCCNc2c3c(nc4ccccc24)CCCC3)c(OCc2ccc(B3OC(C)(C)C(C)(C)O3)cc2)c(COC(=O)C(C)c2ccc(CC(C)C)cc2)c1 (stereo not given),inhibition,[4],46%
same,Activity,SH-SY5Y [6],Toxic
same,Activity,SH-SY5Y [35],Non-Toxic
same,IC50,Acetylcholinesterase,80 nM
same,viability at 5 µM,SH-SY5Y [28],> 50%
COc1cc(/C=C/C(=O)O)ccc1O,Activity,SH-SY5Y [36],Active
same,Activity,SH-SY5Y [37],Active
same,Activity,SH-SY5Y [38],Active
Cc1cc(COC(=O)NCCNc2c3c(nc4ccccc24)CCCC3)c(OCc2ccc(B3OC(C)(C)C(C)(C)O3)cc2)c(COC(=O)C(C)c2ccc(CC(C)C)cc2)c1 (stereo not given),inhibition,[4],28.2%
same,Activity,SH-SY5Y [6],Toxic
same,viability at 20 µM,SH-SY5Y [7],> 80%
same,Activity,SH-SY5Y [35],Non-Toxic
same,IC50,Acetylcholinesterase,608 nM
same,viability at 5 µM,SH-SY5Y [28],> 50%
